Columns and labels:
[1] = system: B16F10 tumor cells; test: B16F10 murine melanoma model; format: in vivo; conditions: for Tumor inhibition rate (%): Day 18
Description: The B16F10 murine melanoma model is a classic melanoma pharmaceutical effect evaluation model, which is made by subcutaneously inoculating the same B16F10 tumor cells into female C57BL/6 mice. The test compounds were administrated to evaluate their inhibitory effects on tumor growth in the model.
B16F10 tumor cells were cultured in a DMEM medium containing inactivated 10% fetal bovine serum, 100 U/ml penicillin, 100 μg/ml streptomycin and 2 mM glutamine in an incubator at 37° C. in the presence of 5% CO2; and after the cells grew all over, the tumor cells were divided and passaged in respective flasks every 3 to 4 days. The tumor cells in the logarithmic growth phase were used for in vivo inoculation of tumors.
The B16F10 tumor cells resuspended in a serum-free DMEM culture solution were inoculated subcutaneously at 1×10^5/100 μl to the right ribs of experimental animals. In the second group, when the tumor grew to 75 mm^3, 12 animals with a uniform tumor volume were selected and administered according to the experimental design.
The first day of tumor inoculation was D0, the first, third, and fourth groups were dosed on the second day of tumor inoculation, and the second group was dosed when the tumor volume reached 75 mm^3.
Tumor volume: the tumor volume was measured 3 times a week with a vernier caliper, and the long and short diameters of the tumor were measured. The volume was calculated with a formula as follows:
volume=0.5×long diameter×short diameter^2.
Tumor growth inhibition rate (TGI, %)=(1-T/C)×100.
T/C(%)=(average tumor volume of treatment groups on the current day-average tumor volume of treatment groups on the initial day D0)/(average tumor volume of the control group on the current day-average tumor volume of the control group on the initial day D0)×100.

[2] = system: haloperidol-induced stiffness; test: Haloperidol-induced Wistar rat stiffness model (bar test, rearing); format: in vivo, Wistar rats; conditions: 10 mg/kg intragastric
Description: Time of bar test: The stiffness of the rats was tested by the bar test. That is, a wooden bar with a diameter of 8 mm was fixed between 2 iron stands and was 10 cm from the bench top; and then, the rat's tail was grabbed to make its front paws rest on the wooden bar and its hind paws or buttocks on the ground. Generally, the rat needs to acclimate several times when it was tested for the first time. The time for the forelimbs to drop from the bar or the time for the hind limbs to leave the bench top were tested, each rat was tested 3 times. Number of standings: the number of standings of the rat was measured by the rearing test. That is, the rat was placed in a 27*52 cm cage and acclimate for 5 minutes, and the spontaneous activity behavior, i.e., the number of standings, of the rat within 10 minutes was recorded. When the rat's hind limbs stood with two forelimbs raised over the shoulders and touched the ground, one standing is counted, and the one forelimb lift was excluded. Generally, the rat would raise its forelimbs to touch the cage wall. If the rat raised its forelimbs over the shoulders several times without falling to the ground, only one standing was counted. The time of bar test was taken as a measurement index, including the average time and the maximum time. Long time indicates severe stiffness, short time indicates mild stiffness. After drug treatment, the shorter the time of bar test, the better the effect of the drug on relieving stiffness. The number of standings was counted by the rearing test. The more the number of standings, the more frequent the spontaneous exploration activity of the rat, and the lower the stiffness. The statistical analysis between groups was performed on the data by using Prism GraphPad 7.0 independent sample T test, and P<0.05 was considered as a significant difference.

SMILES	Tumor inhibition rate (%) ([1]; 50 mg/kg p.o. QD)	Tumor inhibition rate (%) ([1]; 50 mg/kg p.o. QD + Anti PD-1 10 mg/kg i.p. 2/WK)	Animal death / changes in body weight ([1]; alone or combined with anti PD-1)	Average on-bar time [2] [s]	Maximum on-bar time [2] [s]	Number of standings ([2]; 1st hour after haloperidol)
Nc1nc(NCCc2ccc(NC3COC3)cc2)nc2nc(-c3ccco3)nn12 [Compound 22, 2-(furan-2-yl)-N5-(4-(oxetan-3-ylamino)phenethyl)-[1,2,4]triazolo[1,5-a][1,3,5]triazine-5,7-diamine]	22.1	48.1	No animal death or significant changes in body weight	–	–	–
CCn1c(=O)c2c(nc(/C=C/c3ccc(OC)c(OC)c3)n2C)n(CC)c1=O [Istradefylline, reference compound]	–	–	–	10.33 ± 1.58	15.38 ± 2.75	23.25 ± 2.86

— patent US20230048888A1, “USE OF TRIAZOLOTRIAZINE DERIVATIVE IN TREATMENT OF DISEASES” (ZHEJIANG VIMGREEN PHARMACEUTICALS, LTD., priority 2019, published 2023)
